Results as given in patent US9765069B2, “Antimicrobial compounds” (OXFORD UNIVERSITY INNOVATION LIMITED, priority 2012, dated 2017).
Converted amounts (≈) assume the structure as drawn. Like-named read-outs stand apart in the source and are kept apart here.

How the values were obtained:
[1] = system: H4; experiment: MIC determination (bacteria), strain H4; format: cell-based, H. influenzae; conditions: haemophilus test medium; for MIC: Haemophilus influenzae
In short: (§1)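 Read-out: lowest concentration giving no visible growth, reported as μg/ml. Two-fold broth dilution per CLSI M7-A7, Mueller Hinton pH7.4 (2.5% laked horse blood added for S. pneumoniae; H.T.M. for H. influenzae), […], overnight at 37° C in air.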

[2] = system: human peripheral blood cells; experiment: in vitro toxicities human peripheral blood cells; format: cell-based
Description: (§2) These properties can be determined according to techniques that are well known in the art.

[3] = system: S4; experiment: MIC determination (bacteria), strain S4; format: cell-based, S. aureus; conditions: 2-fold broth dilution; for MIC: Staphylococcus aureus
In short: as §1

[4] = system: E2; experiment: MIC determination (bacteria), strain E2; format: cell-based, enterococcus; conditions: 2-fold broth dilution; for MIC: Enterococcus
In short: as §1

[5] = aqueous solubility at pH 7.4; format: physicochemical; conditions: aqueous solubility at pH 7.4 (water with 2% DMSO)
Description: as §2

[6] = system: H3; experiment: MIC determination (bacteria), strain H3; format: cell-based, H. influenzae; conditions: haemophilus test medium; for MIC: Haemophilus influenzae
In short: as §1

[7] = system: P9B; experiment: MIC determination (bacteria), strain P9B; format: cell-based, S. pneumoniae; conditions: 2-fold broth dilution; for MIC: Streptococcus pneumoniae
In short: as §1

[8] = system: Hek293 / PMBC versus S. aureus 2, MRSA in vivo; experiment: Selectivity index (LD50 Hek293/PMBC divided by MIC S. aureus 2); format: cell-based; conditions: lower LD50 of Hek293 and PMBC (converted to μg/mL) divided by MIC against S. aureus 2, MRSA in vivo
[9] = system: S2 (S. aureus 2, MRSA in vivo); experiment: MIC determination (bacteria), strain S2; format: cell-based; conditions: 2-fold broth dilution; for MIC: Staphylococcus aureus, MRSA
In short: as §1

[10] = system: P9; experiment: MIC determination (bacteria), strain P9; format: cell-based, S. pneumoniae; conditions: 2-fold broth dilution; for MIC: Streptococcus pneumoniae
In short: as §1

[11] = system: S26; experiment: MIC determination (bacteria), strain S26; format: cell-based, S. aureus; conditions: 2-fold broth dilution; for MIC: Staphylococcus aureus
In short: as §1

[12] = system: human embryonic kidney 293 cells; experiment: in vitro toxicities against human embryonic kidney 293 cells; format: cell-based
Description: as §2

[13] = system: S1; experiment: MIC determination (bacteria), strain S1; format: cell-based, S. aureus; conditions: 2-fold broth dilution; for MIC: Staphylococcus aureus
In short: as §1

[14] = system: P1; experiment: MIC determination (bacteria), strain P1; format: cell-based, S. pneumoniae; conditions: 2-fold broth dilution; for MIC: Streptococcus pneumoniae
In short: as §1

[15] = system: S. aureus membrane; experiment: In vitro activity in depolarization of S. aureus membrane; format: cell-based; conditions: read-out: DEP (IC50)
Description: as §2

[16] = system: mammalian_red blood cell membrane; experiment: In vitro mammalian red blood cell membrane lysis activity; format: cell-based; conditions: Active or inactive at 100 μM
Description: as §2

[17] = biological target: E. Coli RNAP (Escherichia coli, UniProt P0A8T7+P0A8V2); experiment: In vitro activity against E. Coli RNAP; format: biochemical
Description: as §2

[18] = system: all strains; experiment: MIC determination (bacteria), whole strain panel of Table 2; format: cell-based
Description: MIC determination (bacteria); MICs were determined based on Clinical and Laboratory Standards Institute (CLSI) methodology (Methods for dilution antimicrobial susceptibility tests for bacteria that grow aerobically; Approved Standard—seventh edition. 2006, M7-A7, CLSI, Wayne Pa.) by a 2-fold broth dilution technique in Mueller Hinton (pH7.4 Biorad). For S. pneumoniae, the medium was supplemented with 2.5% laked horse blood. For H. influenzae, the medium was haemophilus test medium (H.T.M.). Overnight cultures were diluted to obtain the final inoculum of 10^5 cfu/well. Incubation was 37° C. overnight in ambient air. The MIC was defined as the lowest concentration which inhibited all visual growth and expressed in μg/ml. For each bacterial species, all of the molecules were tested in the same experiment in order to give a head-to-head comparison.

[19] = system: E1; experiment: MIC determination (bacteria), strain E1; format: cell-based, enterococcus; conditions: 2-fold broth dilution
In short: as §1

[20] = read-out: MIC against the other strains
[21] = all strains (S1, S26, S4, S2, E1, E2, P1, P9, P9B, H3, H4), read-out: MIC for all strains
[22] = human embryonic kidney 293 cells

Sequence of E. Coli RNAP (P0A8V2 whole entry): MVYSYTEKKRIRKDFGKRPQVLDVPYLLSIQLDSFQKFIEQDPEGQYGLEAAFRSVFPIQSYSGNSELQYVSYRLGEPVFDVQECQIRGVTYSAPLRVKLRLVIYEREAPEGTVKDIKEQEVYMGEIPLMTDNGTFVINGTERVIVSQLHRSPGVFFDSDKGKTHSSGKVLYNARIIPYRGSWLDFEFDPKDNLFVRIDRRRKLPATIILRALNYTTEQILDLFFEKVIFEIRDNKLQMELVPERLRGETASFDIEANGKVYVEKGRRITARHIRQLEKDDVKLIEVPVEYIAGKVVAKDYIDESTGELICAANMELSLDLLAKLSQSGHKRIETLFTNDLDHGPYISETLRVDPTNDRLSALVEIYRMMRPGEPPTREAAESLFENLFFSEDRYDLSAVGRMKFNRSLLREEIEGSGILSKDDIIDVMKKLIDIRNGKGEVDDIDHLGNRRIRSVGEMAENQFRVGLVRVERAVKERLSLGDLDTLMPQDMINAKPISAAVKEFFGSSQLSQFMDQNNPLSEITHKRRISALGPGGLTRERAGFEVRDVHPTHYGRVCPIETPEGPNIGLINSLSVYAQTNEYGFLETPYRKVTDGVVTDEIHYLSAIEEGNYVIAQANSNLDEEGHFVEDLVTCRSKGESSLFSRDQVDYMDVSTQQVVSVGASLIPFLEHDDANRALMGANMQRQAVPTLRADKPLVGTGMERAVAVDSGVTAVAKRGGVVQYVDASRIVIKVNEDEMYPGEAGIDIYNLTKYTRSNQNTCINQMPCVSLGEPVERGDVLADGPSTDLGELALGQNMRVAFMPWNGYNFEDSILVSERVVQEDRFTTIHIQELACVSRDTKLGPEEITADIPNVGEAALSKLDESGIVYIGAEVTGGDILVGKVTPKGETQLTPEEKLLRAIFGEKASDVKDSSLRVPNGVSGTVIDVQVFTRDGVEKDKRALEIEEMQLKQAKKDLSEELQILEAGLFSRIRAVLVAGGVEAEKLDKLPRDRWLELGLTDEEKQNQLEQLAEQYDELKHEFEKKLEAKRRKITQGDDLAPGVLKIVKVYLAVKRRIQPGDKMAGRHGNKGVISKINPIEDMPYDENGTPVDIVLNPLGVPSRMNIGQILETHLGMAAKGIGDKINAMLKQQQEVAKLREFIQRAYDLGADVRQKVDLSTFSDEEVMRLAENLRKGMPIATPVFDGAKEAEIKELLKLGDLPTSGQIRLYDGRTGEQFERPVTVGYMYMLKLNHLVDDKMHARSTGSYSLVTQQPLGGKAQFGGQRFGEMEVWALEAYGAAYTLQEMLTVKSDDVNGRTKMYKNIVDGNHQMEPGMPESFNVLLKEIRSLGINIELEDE
Sequence of E. Coli RNAP (P0A8T7 whole entry): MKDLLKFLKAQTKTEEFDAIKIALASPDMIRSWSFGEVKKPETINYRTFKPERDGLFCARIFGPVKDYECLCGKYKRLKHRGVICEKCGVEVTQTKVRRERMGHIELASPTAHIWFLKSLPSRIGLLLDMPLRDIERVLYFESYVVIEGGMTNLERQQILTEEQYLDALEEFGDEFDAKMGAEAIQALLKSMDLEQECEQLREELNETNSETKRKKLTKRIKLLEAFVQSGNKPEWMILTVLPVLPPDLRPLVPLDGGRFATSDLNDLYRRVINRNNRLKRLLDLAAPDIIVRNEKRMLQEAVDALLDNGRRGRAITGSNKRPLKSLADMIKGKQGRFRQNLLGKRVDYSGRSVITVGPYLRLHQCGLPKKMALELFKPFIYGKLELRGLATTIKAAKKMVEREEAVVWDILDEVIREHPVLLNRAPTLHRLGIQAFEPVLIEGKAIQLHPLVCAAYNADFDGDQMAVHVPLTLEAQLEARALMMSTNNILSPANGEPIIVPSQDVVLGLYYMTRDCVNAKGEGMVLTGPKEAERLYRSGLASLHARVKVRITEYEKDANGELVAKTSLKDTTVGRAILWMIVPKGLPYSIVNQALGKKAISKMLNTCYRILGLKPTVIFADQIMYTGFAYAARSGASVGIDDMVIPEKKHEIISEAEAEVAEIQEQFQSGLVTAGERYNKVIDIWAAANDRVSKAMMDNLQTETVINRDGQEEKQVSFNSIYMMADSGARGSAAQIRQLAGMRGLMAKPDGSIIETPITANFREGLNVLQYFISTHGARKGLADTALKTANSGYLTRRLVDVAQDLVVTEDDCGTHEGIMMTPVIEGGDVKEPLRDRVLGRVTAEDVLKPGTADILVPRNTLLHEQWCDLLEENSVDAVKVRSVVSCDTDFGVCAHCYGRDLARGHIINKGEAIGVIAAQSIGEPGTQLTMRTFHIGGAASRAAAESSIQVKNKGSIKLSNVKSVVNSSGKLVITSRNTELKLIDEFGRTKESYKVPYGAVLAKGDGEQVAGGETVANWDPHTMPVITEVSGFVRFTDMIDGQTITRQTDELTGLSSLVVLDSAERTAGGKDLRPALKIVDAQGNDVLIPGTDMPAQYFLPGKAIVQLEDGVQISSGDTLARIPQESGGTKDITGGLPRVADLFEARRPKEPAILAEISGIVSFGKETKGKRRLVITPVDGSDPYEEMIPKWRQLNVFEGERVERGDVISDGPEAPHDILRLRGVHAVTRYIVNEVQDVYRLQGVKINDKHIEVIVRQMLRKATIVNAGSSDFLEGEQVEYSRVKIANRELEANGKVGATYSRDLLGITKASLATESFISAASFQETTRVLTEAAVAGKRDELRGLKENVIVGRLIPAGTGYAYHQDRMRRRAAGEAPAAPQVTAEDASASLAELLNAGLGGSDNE
Sequence of E. Coli RNAP (P0A7Z4 whole entry partner): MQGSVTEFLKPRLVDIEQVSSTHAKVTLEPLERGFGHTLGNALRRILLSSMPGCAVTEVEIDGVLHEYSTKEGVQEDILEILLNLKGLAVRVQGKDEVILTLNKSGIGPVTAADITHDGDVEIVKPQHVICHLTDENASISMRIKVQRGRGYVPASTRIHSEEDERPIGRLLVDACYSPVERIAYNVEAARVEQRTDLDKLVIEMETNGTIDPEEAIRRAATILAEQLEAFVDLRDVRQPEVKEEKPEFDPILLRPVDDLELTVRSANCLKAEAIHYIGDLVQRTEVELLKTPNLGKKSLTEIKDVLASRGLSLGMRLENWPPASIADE
Sequence of E. Coli RNAP (P0A800 whole entry partner): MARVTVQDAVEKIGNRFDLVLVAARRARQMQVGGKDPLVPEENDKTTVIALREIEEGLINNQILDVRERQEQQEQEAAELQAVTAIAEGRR

## Cc1cc(Cl)ccc1OCCC/C(O)=C1\C(=O)CCN(C(=O)c2ccccc2)C1=O [19d]
[1]; Table 2 and its footnote f
  MIC: 8 µg/mL (≈ 18.7 µM)
[2]; human
  PMBC (LD50, μM): 90.9 µM
[3]; Table 2
  MIC: 4 µg/mL (≈ 9.35 µM)
[4]; Table 2
  MIC: 4 µg/mL (≈ 9.35 µM)
[5]
  SOL: >300 µM
[6]; Table 2
  MIC: 16 µg/mL (≈ 37.4 µM)
[7]; Table 2
  MIC: 4 µg/mL (≈ 9.35 µM)
[8]
  SI (Selectivity index): 9.7
[9]; Table 2
  MIC: 4 µg/mL (≈ 9.35 µM)
[10]; Table 2
  MIC: 1 µg/mL (≈ 2.34 µM)
[11]; Table 2
  MIC: 4 µg/mL (≈ 9.35 µM)
[12]; human
  Hek293 (LD50, μM): 90.9 µM
[13]; Table 2
  MIC: 2 µg/mL (≈ 4.67 µM)
[14]; Table 2
  MIC: 2 µg/mL (≈ 4.67 µM)

## CSCCC1C(=O)/C(=C(/O)CC2CC3CCC2C3)C(=O)N1C(=O)CC(C)CC(C)(C)C (centres unmarked) [31g]
[1]; Table 2 and its footnote f
  MIC: 2 µg/mL (≈ 4.45 µM)
[2]; human
  PMBC (LD50, μM): 30.3 µM
[3]; Table 2
  MIC: 0.5 µg/mL (≈ 1.11 µM)
[4]; Table 2
  MIC: 0.25 µg/mL (≈ 0.556 µM)
[5]
  SOL: >300 µM
[6]; Table 2
  MIC: 32 µg/mL (≈ 71.2 µM)
[7]; Table 2
  MIC: 2 µg/mL (≈ 4.45 µM)
[15]; Staphylococcus aureus
  IC50: > 100 µM
[16]
  RBC membrane lysis activity (active/inactive): Active
[8]
  SI (Selectivity index): <9.1
[9]; Table 2
  MIC: 0.5 µg/mL (≈ 1.11 µM)
[17]
  IC50: > 100 µM
[10]; Table 2
  MIC: 0.25 µg/mL (≈ 0.556 µM)
[11]; Table 2
  MIC: 0.5 µg/mL (≈ 1.11 µM)
[12]; human
  Hek293 (LD50, μM): 10.1 µM
[13]; Table 2
  MIC: 0.12 µg/mL (≈ 0.267 µM)
[14]; Table 2
  MIC: 0.5 µg/mL (≈ 1.11 µM)

## CCC/C=C/C(=O)N1CC(=O)/C(=C(/O)CC2C[C@@H](C(C)=O)C2(C)C)C1=O (some centres unmarked) [27q]
[1]; Table 2 and its footnote f
  MIC: 32 µg/mL (≈ 88.5 µM)
[18]; [20]
  MIC: > 32 µg/mL

## CCCCCCC/C=C/C(=O)N1C(=O)/C(=C(\O)C[C@@H]2OC(C)(C)OC2=O)C(=O)C1CC(C)C (some centres unmarked) [30c]
[18]; [21]
  MIC: > 32 µg/mL
[17]
  IC50: 85 µM

## CC12CC3CC(C)(C1)CC(C/C(O)=C1\C(=O)[C@@H]4CCCC(=O)N4C1=O)(C3)C2 [29a]
[1]; Table 2 and its footnote f
  MIC: 16 µg/mL (≈ 43.1 µM)
[18]; [20]
  MIC: > 32 µg/mL
[17]
  IC50: > 100 µM

## CSCCC1C(=O)/C(=C(/O)CCCOc2ccc(Cl)cc2C)C(=O)N1C(=O)CC(C)CC(C)(C)C (centres unmarked) [31j]
[1]; Table 2 and its footnote f
  MIC: 8 µg/mL (≈ 15.3 µM)
[2]; human
  PMBC (LD50, μM): 30.3 µM
[3]; Table 2
  MIC: 1 µg/mL (≈ 1.91 µM)
[4]; Table 2
  MIC: 0.25 µg/mL (≈ 0.477 µM)
[5]
  SOL: >300 µM
[6]; Table 2
  MIC: > 64 µg/mL
[7]; Table 2
  MIC: 8 µg/mL (≈ 15.3 µM)
[15]; Staphylococcus aureus
  IC50: > 100 µM
[16]
  RBC membrane lysis activity (active/inactive): Active
[8]
  SI (Selectivity index): <11
[19]; Enterococcus, Table 2
  MIC: 1 µg/mL (≈ 1.91 µM)
[9]; Table 2
  MIC: 0.5 µg/mL (≈ 0.954 µM)
[17]
  IC50: 91 µM
[10]; Table 2
  MIC: 0.25 µg/mL (≈ 0.477 µM)
[11]; Table 2
  MIC: 1 µg/mL (≈ 1.91 µM)
[12]; human
  Hek293 (LD50, μM): 10.1 µM
[13]; Table 2
  MIC: 0.5 µg/mL (≈ 0.954 µM)
[14]; Table 2
  MIC: 0.5 µg/mL (≈ 0.954 µM)

## CCCCCCC(=O)N1CC(=O)C(=C(O)CC23CC4CC(CC(C4)C2)C3)C1=O [27i]
[1]; Table 2 and its footnote f
  MIC H4: 1 µg/mL (≈ 2.58 µM)
[2]; human peripheral blood cells
  PMBC (LD50, μM): 30.3 µM
[3]; Table 2
  MIC S4: 0.25 µg/mL (≈ 0.645 µM)
[4]; Table 2
  MIC E2: 0.25 µg/mL (≈ 0.645 µM)
[5]
  SOL: 67 to 200 µM
[6]; Table 2
  MIC H3: 2 µg/mL (≈ 5.16 µM)
[7]; Table 2
  MIC P9B: 1 µg/mL (≈ 2.58 µM)
[15]
  IC50: > 100 µM
[16]
  RBCL (IC50, μM): Active
[19]; Table 2
  MIC E1: 0.12 µg/mL (≈ 0.31 µM)
[9]; Table 2
  MIC S2: 0.25 µg/mL (≈ 0.645 µM)
[17]
  IC50: 3.1 µM
[10]; Table 2
  MIC P9: 0.12 µg/mL (≈ 0.31 µM)
[11]; Table 2
  MIC S26: 0.5 µg/mL (≈ 1.29 µM)
[12]; [22]
  Hek293 (LD50, μM): 10.1 µM
[13]; Table 2
  MIC S1: 0.25 µg/mL (≈ 0.645 µM)
[14]; Table 2
  MIC P1: 0.12 µg/mL (≈ 0.31 µM)

## CCCC(=O)N1CC(=O)/C(=C(/O)CCNS(=O)(=O)c2ccccc2)C1=O [28j]
[18]; [21]
  MIC: > 32 µg/mL

## CSCCC1C(=O)/C(=C(/O)C[C@@H]2OC(C)(C)OC2=O)C(=O)N1C(=O)CC(C)CC(C)(C)C (some centres unmarked) [31h]
[18]; [21]
  MIC: > 32 µg/mL

## CCCCCC(O)=C1C(=O)C(CCSC)N(C(=O)CC(C)CC(C)(C)C)C1=O (centres unmarked) [24i]
[1]; Table 1
  MIC H4: 2 µg/mL (≈ 4.86 µM)
[2]; human peripheral blood cells
  PMBC (LD50, μM): 30.3 µM
[3]; Table 1
  MIC S4: 0.5 µg/mL (≈ 1.21 µM)
[4]; Table 1
  MIC E2: 0.25 µg/mL (≈ 0.607 µM)
[5]
  SOL: >300 µM
[6]; Table 1
  MIC H3: 8 µg/mL (≈ 19.4 µM)
[7]; Table 1
  MIC P9B: 2 µg/mL (≈ 4.86 µM)
[15]
  IC50: > 100 µM
[16]
  RBCL (IC50, μM): Active
[19]; Table 1
  MIC E1: 0.5 µg/mL (≈ 1.21 µM)
[9]; Table 1
  MIC S2: 0.5 µg/mL (≈ 1.21 µM)
[17]
  IC50: 33 µM
[10]; Table 1
  MIC P9: 0.25 µg/mL (≈ 0.607 µM)
[11]; Table 1
  MIC S26: 1 µg/mL (≈ 2.43 µM)
[12]; [22]
  Hek293 (LD50, μM): 10.1 µM
[13]; Table 1
  MIC S1: 0.25 µg/mL (≈ 0.607 µM)
[14]; Table 1
  MIC P1: 0.25 µg/mL (≈ 0.607 µM)
